According to article PMC10575874, “Structural insights into the allosteric inhibition of P2X4 receptors” (Nature Communications, 2023):

B1: zebrafish P2X4 receptor (residues 9-382) (receptor, UniProt F8W463 9-382, looked up)
chain: DSVSQCFFDYYTSKILIIRSKKVGTLNRFTQALVIAYVIGYVCVYNKGYQDTDTVLSSVTTKVKGIALTNTSELGERIWDVADYIIPPQEDGSFFVLTNMIITTNQTQSKCAENPTPASTCTSHRDCKRGFNDARGDGVRTGRCVSYSASVKTCEVLSWCPLEKIVDPPNPPLLADAENFTVLIKNNIRYPKFNFNKRNILPNINSSYLTHCVFSRKTDPDCPIFRLGDIVGEAEEDFQIMAVHGGVMGVQIRWDCDLDMPQSWCVPRYTFRRLDNKDPDNNVAPGYNFRFAKYYKNSDGTETRTLIKGYGIRFDVMVFGQAGKFNIIPTLLNMGAGLALLGLVNVICDWIVLTFMKRKQHYKEQKYTYVDDFG
notes: P2X4 receptor, zebrafish (Danio rerio), GenBank AAH66495.1, residues 9-382 (truncation of the N-terminal 8 and the C-terminal 7 residues); Homotrimer; A C-terminal HRV 3C site stood before TGP and the Twin-Strep-tag; residues of the site may remain after cleavage; also called zfP2X4; source: Sf9 (baculovirus), purified (Strep-Tactin, HRV 3C cleavage, SEC), reconstituted into PMAL-C8 amphipol; not …

What was measured:
[1] = target: T1, zebrafish P2X4 receptor (zfP2X4) (Danio rerio, UniProt F8W463); assay: cryo-EM structure ([…] Å); whole-cell patch clamp in HEK293 cells
T1 construct: gene p2rx4a; residues 9-382 (GenBank AAH66495.1), trimer in PMAL-C8 amphipol
T1 sequence (F8W463 9-382): B1 chain

[2] = target: T2, human P2X3 receptor, P2X4-like gain-of-function mutant (Homo sapiens, UniProt P56373, M75W/T82I/V98I); assay: patch clamp of ATP-evoked currents in HEK293 cells at […] BX430; format: cell-based
T2 construct: gene P2RX3
T2 sequence (P56373 1-397 M75W/T82I/V98I): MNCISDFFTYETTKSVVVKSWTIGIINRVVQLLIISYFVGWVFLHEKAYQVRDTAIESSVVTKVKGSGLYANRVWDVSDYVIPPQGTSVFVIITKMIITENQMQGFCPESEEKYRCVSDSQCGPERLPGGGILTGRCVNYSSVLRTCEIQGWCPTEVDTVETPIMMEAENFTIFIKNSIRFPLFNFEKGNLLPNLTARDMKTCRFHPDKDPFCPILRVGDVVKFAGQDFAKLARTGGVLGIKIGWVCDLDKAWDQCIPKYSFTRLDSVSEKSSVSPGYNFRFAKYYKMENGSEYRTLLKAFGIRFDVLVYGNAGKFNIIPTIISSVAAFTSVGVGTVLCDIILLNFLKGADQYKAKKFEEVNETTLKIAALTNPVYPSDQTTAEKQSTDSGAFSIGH

[3] = target: the molecule itself; assay: cryo-EM structure; purified zfP2X4 in PMAL-C8 amphipol, incubated with 50 uM BX430 or 125 uM BAY-1797 for 1 h; C3 symmetry imposed, also processed with C1 symmetry

Molecule | IC50 [1] | patch clamp of ATP-evoked currents in HEK293 cells at 30 and 100 μM BX430 [2] | stoichiometry N [3]
CC(C)c1cc(Br)c(NC(=O)Nc2cccnc2)c(Br)c1 [BX430, 1-(2,6-dibromo-4-isopropylphenyl)-3-(3-pyridyl)urea] | BX430-bound zfP2X4 (EMD-36668) (PDB 8JV5) | the P2X4-like mutant of human P2X3 (M75W/T82I/V98I) conferred sensitivity to BX430 | –
B1 | – | – | 3
